Source: patent US6452005B1, “JAK-3 inhibitors for treating allergic disorders” (Parker Hughes Institute, priority 1999, dated 2002)
pIC50: −log10 of the molar value.

Key:
RBL-2H3 mast cells = experiment: IgE/antigen-induced activation (cell spreading, microtubule organization) by confocal microscopy; type: cell-based, rat; settings: 30 μM, two hour incubation
Method: RBL-2H3 cells were cultured overnight on 22×22 mm coverslips at a cell density of 0.01×10^6/ml with […] DNP-IgE. Sensitized RBL-2H3 cells were then treated with 30 μM WHI-P131, vehicle, or control compounds WHI-P258 and WHI-P112 prior to challenge with DNP-BSA, as described in the legend of FIG. 4. After stimulation with DNP-BSA for 1 hour, cells were fixed in cold methanol for 15 minutes followed by permeabilization with PBS containing 0.1% Triton X-100. […] After washing 3 times with PBS-0.1% Triton X-100, cells were incubated with fluorescein labeled secondary antibody (Zymed, San Francisco, Calif.) for another 40 minutes. Cells were washed three times to remove unbound antibody. DNA labeling was performed by incubation of coverslips with toto-3 (Molecular Probes, Eugene, Oreg.) for 10 minutes. Excessive dye was washed with PBS-0.1% Triton X-100. Cells were visualized under MRC 1024 Laser Scanning Microscope after mounting with Vectashield (Vector laboratories, Inc, Burlingame, Calif.), as previously reported.
Confocol Microscopy: Staining of mast cells with primary and secondary antibodies followed by confocal laser scanning microscopy was performed as previously described in detail (Uckun et. al., 1998, Clin. Cancer Res., 4:901-912). After staining with appropriate primary and secondary antibodies, cells were washed three times to remove unbound antibody. DNA labeling was performed by incubation of coverslips with toto-3 (Molecular Probes, Eugene, Oreg.) for 10 min. Excessive dye was washed with PBS-0.1% triton X-100. Cells were visualized under MRC 1024 Laser Scanning Microscope after mounting with Vectashield (Vector laboratories, Inc, Burlingame, Calif.).
In a systematic effort aimed at elucidating the biologic consequences of JAK3 inhibition in mast cells, we first sought to determine if the JAK3 inhibitor WHI-P131 could prevent the IgE receptor/FcεRI-mediated activation of mast cells. Since the IgE receptor/FcεRI-mediated activation of mast cells results in a distinct morphologic transformation with marked cell spreading due to membrane ruffling, microtubule formation and actin polymerization (Apgar, 1997), we evaluated the effects of WHI-P131 on the activation-associated transformation of shape and surface topography of RBL-2H3 mast cells using confocal laser scanning microscopy (Ghosh et. al., 1998).

human JAK3 = biological target: T1, human JAK3 (Homo sapiens, UniProt P52333); experiment: Immune complex kinase assay, JAK3 immunoprecipitated from KL2 EBV-transformed lymphoblastoid B cell line; type: biochemical; settings: JAK3 immunoprecipitated from KL2 cells
T1 construct: KL-2 EBV-transformed human lymphoblastoid B cells (native JAK3 kinase assays); endogenous in cells; host or cells: KL-2 EBV-transformed human lymphoblastoid B cell line
T1 sequence (P52333 1-1124): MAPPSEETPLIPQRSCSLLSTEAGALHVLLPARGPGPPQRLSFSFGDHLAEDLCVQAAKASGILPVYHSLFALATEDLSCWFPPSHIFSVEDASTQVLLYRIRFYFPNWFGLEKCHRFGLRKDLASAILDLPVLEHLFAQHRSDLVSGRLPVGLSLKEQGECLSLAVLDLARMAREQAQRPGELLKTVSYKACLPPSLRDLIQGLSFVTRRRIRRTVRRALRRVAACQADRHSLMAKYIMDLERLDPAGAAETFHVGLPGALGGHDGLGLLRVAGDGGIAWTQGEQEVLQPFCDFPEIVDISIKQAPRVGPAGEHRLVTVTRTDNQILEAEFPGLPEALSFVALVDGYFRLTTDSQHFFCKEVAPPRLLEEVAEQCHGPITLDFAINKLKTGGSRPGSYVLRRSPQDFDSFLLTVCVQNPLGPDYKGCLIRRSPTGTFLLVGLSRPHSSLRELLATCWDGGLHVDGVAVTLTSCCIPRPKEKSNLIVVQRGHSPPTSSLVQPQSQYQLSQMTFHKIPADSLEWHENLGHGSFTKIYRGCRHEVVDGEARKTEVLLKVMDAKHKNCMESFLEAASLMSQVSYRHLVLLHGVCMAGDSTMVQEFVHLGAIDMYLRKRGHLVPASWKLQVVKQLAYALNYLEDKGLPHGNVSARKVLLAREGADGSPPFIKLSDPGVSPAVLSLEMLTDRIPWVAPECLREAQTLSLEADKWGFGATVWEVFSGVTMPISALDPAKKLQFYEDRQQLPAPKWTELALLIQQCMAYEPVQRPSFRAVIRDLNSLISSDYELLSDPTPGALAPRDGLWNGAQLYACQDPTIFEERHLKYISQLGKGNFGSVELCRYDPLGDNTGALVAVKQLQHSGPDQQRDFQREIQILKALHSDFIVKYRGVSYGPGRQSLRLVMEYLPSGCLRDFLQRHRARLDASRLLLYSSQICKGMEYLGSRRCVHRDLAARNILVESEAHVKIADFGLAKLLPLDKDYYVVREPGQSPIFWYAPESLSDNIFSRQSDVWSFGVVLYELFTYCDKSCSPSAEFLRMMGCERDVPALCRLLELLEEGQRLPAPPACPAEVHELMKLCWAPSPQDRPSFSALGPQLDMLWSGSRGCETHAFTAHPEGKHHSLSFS
Method: KL-2 EBV-transformed human lymphoblastoid B cells (native JAK3 kinase assays) or insect ovary cells (recombinant JAK3 kinase assays) were lysed with NP-40 lysis buffer (50 mM Tris, pH 8, 150 mM NaCl, 5 mM EDTA, 1% NP-40, 100 μM sodium orthovanadate, 100 μM sodium molybdate, 8 μg/ml aprotinin, 5 μg/ml leupeptin, and 500 μM PMSF) and centrifuged 10 minutes at 13000×g to remove insoluble material. Samples were immunoprecipitated with antisera prepared against JAK3. The antisera were diluted and immune complexes collected by incubation with 15 μl protein A Sepharose. After 4 washes with NP-40 lysis buffer, the protein A Sepharose beads were washed once in kinase buffer (20 mM MOPS, pH 7.0, 10 mM MgCl2) and resuspended in the same buffer. Reactions were initiated by the addition of 25 μCi γ[^32P] ATP (5000 Ci/mMole) and unlabeled ATP to a final concentration of 5 μM. Reactions were terminated by boiling for 4 min in SDS sample buffer. Samples were run on 9.5% SDS polyacrylamide gels and labeled proteins will be detected by autoradiography. […] For each drug concentration, a kinase activity index (KA) was determined by comparing the kinase activity in phosphorimager units (PIU) to that of the baseline sample. […]

recombinant JAK1 = biological target: T2, recombinant JAK1 (Homo sapiens, UniProt P23458); experiment: Immune complex kinase assay, recombinant JAK1; type: biochemical; settings: FIG. 6C & D
T2 construct: made in house; host or cells: Sf21 insect cells, baculovirus
Description: Immune Complex Kinase Assays.

T2 sequence (P23458 whole entry): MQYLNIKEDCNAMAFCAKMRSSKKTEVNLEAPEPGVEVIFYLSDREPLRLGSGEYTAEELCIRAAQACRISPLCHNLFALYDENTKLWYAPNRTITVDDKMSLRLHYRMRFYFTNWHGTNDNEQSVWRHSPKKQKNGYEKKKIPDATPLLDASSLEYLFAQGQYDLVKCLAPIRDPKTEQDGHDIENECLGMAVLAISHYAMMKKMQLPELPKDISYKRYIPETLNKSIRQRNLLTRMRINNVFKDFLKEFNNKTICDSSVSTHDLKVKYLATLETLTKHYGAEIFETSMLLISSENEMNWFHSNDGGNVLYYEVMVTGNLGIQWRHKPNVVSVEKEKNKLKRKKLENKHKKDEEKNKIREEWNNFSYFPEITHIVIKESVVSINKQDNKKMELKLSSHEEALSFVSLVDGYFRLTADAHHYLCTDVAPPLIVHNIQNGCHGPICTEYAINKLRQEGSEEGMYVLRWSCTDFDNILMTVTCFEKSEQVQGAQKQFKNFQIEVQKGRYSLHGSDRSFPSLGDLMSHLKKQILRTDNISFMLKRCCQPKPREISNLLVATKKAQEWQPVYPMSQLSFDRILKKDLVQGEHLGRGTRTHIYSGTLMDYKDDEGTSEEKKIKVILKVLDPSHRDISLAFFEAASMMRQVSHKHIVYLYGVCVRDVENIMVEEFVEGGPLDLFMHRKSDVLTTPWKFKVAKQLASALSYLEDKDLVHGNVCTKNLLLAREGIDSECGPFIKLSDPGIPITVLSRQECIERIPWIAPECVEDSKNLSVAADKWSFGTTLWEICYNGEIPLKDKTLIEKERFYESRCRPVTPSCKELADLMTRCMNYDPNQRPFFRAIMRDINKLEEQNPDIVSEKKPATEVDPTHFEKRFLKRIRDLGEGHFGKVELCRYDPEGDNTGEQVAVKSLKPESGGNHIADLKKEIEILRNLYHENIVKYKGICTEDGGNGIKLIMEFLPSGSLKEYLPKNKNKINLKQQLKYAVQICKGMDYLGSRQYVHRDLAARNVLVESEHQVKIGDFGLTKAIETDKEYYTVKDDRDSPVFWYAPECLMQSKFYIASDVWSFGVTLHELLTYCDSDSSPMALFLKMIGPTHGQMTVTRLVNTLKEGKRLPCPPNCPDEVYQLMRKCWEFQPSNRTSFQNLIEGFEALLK

## COc1cc2ncnc(Nc3ccc(O)cc3)c2cc1OC [WHI-P131, 4-(4′-Hydroxylphenyl)-amino-6,7-dimethoxyquinazoline]
RBL-2H3 mast cells
  IgE/antigen-induced mast cell activation (spreading and microtubule organization): prevented
  cells spindle shaped after IgE/antigen: 58%
RBL-2H3 mast cells; 93% without drug
  cells flattened after IgE/antigen: 23%
Human JAK3
  pIC50: 5.04
Recombinant JAK1
  inhibitory activity against recombinant JAK1: did not exhibit any detectable inhibitory activity
